Data: patent US20220184071A1, “GEPOTIDACIN FOR USE IN THE TREATMENT OF BACTERIAL URINARY TRACT INFECTIONS” (GlaxoSmithKline Intellectual Property Development Limited, priority 2019, published 2022)
Converted amounts (≈) assume the structure as drawn. “And” between values parts separate entries of the source, which are not always exact repeats. Identical values can stand only once. Like-named read-outs stand apart in the source and are kept apart here.

Columns and labels:
S. saprophyticus = test: MIC by CLSI agar dilution, Example 1 Method 2; assay type: cell-based, Staphylococcus saprophyticus
Protocol: (§1) Antimicrobial activity was determined in a second study by […] using the CLSI recommended procedure in serial two-fold dilutions and the minimum inhibitory concentration (MIC) was determined as the lowest concentration of the compound that inhibited visible growth.
This study tested gepotidacin by CLSI agar dilution against 51 isolates of S. saprophyticus collected between 2005-2018.
Amikacin, ceftazidime, colistin, fosfomycin, levofloxacin, meropenem, nitrofurantoin and trimethoprim-sulfamethoxazole were included as comparators. MICs for and comparators were determined by agar dilution according CLSI methods.
(§2) MICs were determined according to CLSI agar dilution guidelines.

E. coli ALL = test: Immunocompetent mouse kidney infection (pyelonephritis/UTI) model PK/PD; assay type: in vivo
Protocol: PK and PD studies using gepotidacin were conducted in murine (male CD-1 mice) thigh and kidney infections. The administered doses ranged from 1 to 200 mg/kg SC every 6 hours starting 1h post infection. Infected tissues were evaluated for bacterial burden at 24 h post infection (baseline controls at 1 h post infection).
Efficacy was determined against E. coli ALL, 997577, ATCC25922, IR5 and NCTC13441 (MICs of 1 to 4 μg/mL) in thigh-infected neutropenic (I−) mice and against E. coli ALL in kidney-infected immunocompetent (I+) and I− mice. The PopPK model was used to determine GEP exposures associated with efficacy. PK-PD analyses were conducted using Phoenix WinNonLin 6.3 (Pharsight). The change in login colony forming units (CFU) from baseline were correlated with free drug (f) AUC:MIC using an inhibitory model from the Phoenix library, and model parameter values for each isolate were used to calculate the plasma fAUC:MIC associated with stasis, 1- or 2-login reductions in CFU.
PD studies were conducted using thigh and/or kidney infection models in neutropenic or competent mice (N=5/group). Mice were infected with a bacterial suspension in log phase: 100 μL in the left thigh muscle or 50 μL in each of both kidneys (100 μl total). Final inocula across all isolates were 6.0 to 7.0 login CFU/mouse. Dose-ranging studies were conducted with 5 isolates (see Table 1). Starting 1 hr after infection, GEP was given SC (0.2 mL/mouse) at discrete doses of 1-200 mg/kg every 6 hours (q6) for a 24-hour period (4 doses in total). Mice were euthanized 24 hr after start of therapy (6 hr after the last dose), and infected thighs or kidneys were processed to determine viable bacterial counts (CFU). Baseline CFU were obtained from untreated mice at 1 hr post infection and growth control CFU from saline-treated mice at 24 hr.
NCA analyses were conducted with the simulated data.
PK-PD analysis was conducted using Phoenix WinNonLin 6.3 (Pharsight): • Log10 colony forming units (CFU) from each group were correlated with PK-PD parameters using several inhibitory models from the Phoenix library. • Model parameter values for each isolate were used to calculate the PK-PD parameter value associated with stasis, 1-log or 2-log reductions from baseline 1 h controls.

N. gonorrhoeae = test: MIC by CLSI agar dilution, Example 1 Method 2; assay type: cell-based, Neisseria gonorrhoeae; settings: n = 95
Protocol: as §1, §2

S. epidermidis = test: MIC by CLSI broth microdilution, Example 5 second study (skin and soft tissue isolates); assay type: cell-based; settings: Staphylococcus epidermidis; 13 isolates, 2013-2014
Source text: A second study tested gepotidacin by CLSI broth microdilution against bacterial isolates collected from patients with acute bacterial skin and soft tissue infections between 2013-2014. Amoxicillin/clavulanic acid, linezolid, fusidic acid, ceftriaxone, ceftaroline, vancomycin, penicillin, quinupristin/dalfopristin, erythromycin, clindamycin, meropenem, tetracycline, chloramphenicol, flucloxacillin, telavancin, daptomycin, trimethoprim/sulfamethoxazole, gentamicin, levofloxacin, tigecycline and cefuroxime were included as comparators. MICs were determined by broth microdilution according to CLSI methods.

[1] = Plasma and urine pharmacokinetics, phase IIa study in women with acute uUTI; assay type: in vivo, human; settings: for Cmax: read-out: Plasma Cmax, Geometric Mean (% CVb); for AUC: po, uUTI patients, read-out: urine AUC[0-tau]
Protocol: Bronchoalveolar lavage samples were collected to determine gepotidacin exposures in ELF and AM following a single 1000 mg IV infusion over 2 hours to healthy subjects. Saliva exposure was assessed in healthy volunteers following 1500 mg oral single dose. Gepotidacin exposures in urine was assessed in women with acute uUTI following 1500 mg BID oral doses for 5 days.
This phase IIa single center study evaluated the safety, tolerability, pharmacokinetics, and efficacy of oral gepotidacin 1500 mg BID for 5 days in female subjects with acute cystitis. Clean catch mid-stream urine specimens were obtained for quantitative culture by standard methods. Urine samples were taken from all participants pre-treatment (baseline) and at all post-baseline visits. All urine samples were sent to a central laboratory (PPD Global Clinical Laboratories, Highland Heights, Ky., USA) for Gram stain, quantitative culture, pathogen identification and susceptibility testing. See FIG. 1 for participant disposition and study outline.
Serial blood and urine PK sampling were performed for the first dose of study treatment on Day 1 and for the time-matched dose on Day 4. Participants took all doses of gepotidacin with food and remained in the clinic to complete a total of 10 doses. Participants were instructed to return for the TOC (Day 10 to 13) and Follow-up (Day 28±3) Visits.
For pharmacokinetic assessments, serial blood and urine samples for the assessment of gepotidacin PK concentrations were collected out to 12 hours post dose (T) following the morning dose on Days 1 and 4. CT (trough) concentrations were collected on Days 1-5. PK concentrations of gepotidacin in plasma and urine were measured using a validated LC-MS/MS bio-analytical assay.

E. coli = test: MIC of the isolates used in the murine models; assay type: cell-based, Escherichia coli

O=c1ccc2ncc(=O)n3c2n1C[C@H]3CN1CCC(NCc2cc3c(cn2)OCCC3)CC1 [gepotidacin, (2R)-2-({4-[(3,4-dihydro-2H-pyrano[2,3-c]pyridin-6-ylmethyl)amino]-1-piperidinyl}methyl)-1,2-dihydro-3H,8H-2a,5,8a-triazaacenaphthylene-3,8-dione]
% of isolates with MIC ≤0.125 mg/L (S. saprophyticus; 51 isolates): 100%
MIC90 (S. saprophyticus; Staphylococcus saprophyticus, 51 isolates collected 2005-2018, read-out: MIC90): 0.125 µg/mL (≈ 0.279 µM)
MIC (S. saprophyticus; Staphylococcus saprophyticus, 51 isolates, read-out: MICs for all S. saprophyticus): ≤ 0.125 µg/mL
MIC50 (S. saprophyticus; Staphylococcus saprophyticus, n = 51): ≤ 0.06 µg/mL
MIC90 (S. saprophyticus; n = 51): 0.125 µg/mL (≈ 0.279 µM)
Number of Isolates at Gepotidacin MIC ≤0.25 mg/L (S. saprophyticus; n = 51): 51
PK-PD target (fAUC/MIC) in immunocompetent vs neutropenic mice (E. coli ALL; I+ (non-neutropenic) mice): reduced by approx. half
Daily fAUC/MIC for 1-log Drop (E. coli ALL; Strain ALL, Competent UTI): 3.3
Daily fAUC/MIC for 2-log Drop (E. coli ALL; Strain ALL, Competent UTI): 8.1
Daily fAUC/MIC for Stasis (E. coli ALL; Strain ALL, Competent UTI): 0.7
MIC50 (N. gonorrhoeae; Neisseria gonorrhoeae): 0.25 µg/mL (≈ 0.557 µM)
MIC90 (N. gonorrhoeae; Neisseria gonorrhoeae): 1 µg/mL (≈ 2.23 µM)
Number of Isolates at Gepotidacin MIC 0.5 mg/L (N. gonorrhoeae): 6
Number of Isolates at Gepotidacin MIC 1 mg/L (N. gonorrhoeae): 6
Number of Isolates at Gepotidacin MIC 2 mg/L (N. gonorrhoeae): 4
Number of Isolates at Gepotidacin MIC ≤0.25 mg/L (N. gonorrhoeae): 79
MIC90 (S. epidermidis): 0.25 µg/mL (≈ 0.557 µM)
accumulation in plasma following BID dosing (based on AUC) ([1]; 1500 mg BID oral): 1.4 fold
dose excreted in urine over the 12-hour dosing interval ([1]; Day 1): Approximately 20%
Plasma CT, Geometric Mean (% CVb) ([1]; Day 4): 0.851 (41.1) [n = 21] μg/mL
Urine CT, Geometric Mean (% CVb) ([1]; Day 4): 327 (248.7) [n = 21] μg/mL
dose excreted in urine over the 12-hour dosing interval ([1]; Day 4): 31%
Steady state attained by ([1]; based on trough plasma concentrations): ≤ 3 days
concentration at 12 h ([1]; female, human, in vivo, over the 12-hour dosing interval, 1500 mg BID oral, read-out: minimum / steady-state trough urine concentrations (remained above a MIC of)): > 4000 ng/mL
AUC(0-t) ([1]; female, human, plasma, oral, 1500 mg, Day 1, read-out: Plasma AUC(0-T), Geometric Mean (% CVb)): 20.2 µg·h/mL
Cmax ([1]; female, human, plasma, oral, 1500 mg, Day 1): 5890 ng/mL
AUC(0-t) ([1]; female, human, plasma, oral, 1500 mg, Day 4, read-out: Plasma AUC(0-T), Geometric Mean (% CVb)): 29.3 µg·h/mL
Cmax ([1]; female, human, plasma, oral, 1500 mg, Day 4): 8440 ng/mL
Tmax ([1]; female, human, plasma, oral, 1500 mg, plasma, Day 1, read-out: median Tmax): 1.5 h
Tmax ([1]; female, human, plasma, oral, 1500 mg, plasma, Day 4, read-out: median Tmax): 1.92 h
Tmax ([1]; female, human, plasma, oral, 1500 mg, plasma, Days 1 and 4, read-out: median Tmax values): 1.5 to 1.92 h
half-life ([1]; female, human, plasma, oral, 1500 mg, read-out: effective elimination half-life (converted)): 6.6 h
AUC(0-t) ([1]; female, human, urine, oral, 1500 mg, Day 1, read-out: Urine AUC(0-T), Geometric Mean (% CVb)): 3740 µg·h/mL
AUC(0-t) ([1]; female, human, urine, oral, 1500 mg, Day 4, read-out: Urine AUC(0-T), Geometric Mean (% CVb)): 5970 µg·h/mL
AUC(0-t) ([1]; female, human, urine, oral, 1500 mg, steady state, Day 4, read-out: Urinary AUC(0-24)): 11900 µg·h/mL
Kp ([1]; female, human, urine, oral, 1500 mg, read-out: Steady-state urine exposures (AUC[0-24]) exceeded free plasma exposures by): ~300
AUC ([1]; female, human, urine, 1500 mg, Day 1, 1500 mg BID oral): 3740 µg·h/mL
AUC ([1]; female, human, urine, 1500 mg, Day 4, 1500 mg BID oral): 5970 µg·h/mL
Urine Ctau ([1]; from Day 3 onwards, 1500 mg BID oral): 322 to 352 µg/mL
renal excretion ([1]; healthy subjects (comparison)): 7.5 % of dose
free plasma AUC(0-24) ([1]; steady state, Day 4): 39.4 µg·h/mL and 39.3 µg·h/mL
renal excretion ([1]; uUTI participants): 20 % of dose
range of MICs (E. coli; 5 isolates: ALL, 997577, ATCC25922, IR5, NCTC13441): 1 to 4 µg/mL
Gepotidacin MIC (E. coli; Strain 997577): 2 µg/mL
Gepotidacin MIC (E. coli; Strain ALL): 4 µg/mL
Gepotidacin MIC (E. coli; Strain ATCC25922): 1 µg/mL
Gepotidacin MIC (E. coli; Strain IR5): 4 µg/mL
Gepotidacin MIC (E. coli; Strain NCTC13441): 2 µg/mL
